Values of other authors as cited in US20230301938A1 (priority 2022, published 2023).
Like-named read-outs stand apart in the source and are kept apart here.

Experiments:
[1] = system: lipopolysaccharide-activated macrophages
myocardial ischemia = settings: 10 mg/kg intravenously then 10 mg/kg/h
sepsis = settings: for concentration of IL-1α: controls 1187.0 ± 278.64
[2] = system: lipopolysaccharide-induced inflammatory reactions
[3] = system: human umbilical vein VECs (HUVECs)
[4] = system: endothelium of atherosclerotic plaque; settings: apoE(-/-) mice, injection
[5] = system: LPS-challenged macrophages; settings: pre-incubated 6 h, 0 to 50 µM, then LPS 24 h
[6] = system: Nrf2 (-/-) primary peritoneal macrophages
[7] = system: Nrf2 (+/+) primary peritoneal macrophages
[8] = 50 and 100 mg/kg/day, vs MD group

Compound: O=C(O[C@@H]1Cc2c(O)cc(O)cc2O[C@@H]1c1cc(O)c(O)c(O)c1)c1cc(O)c(O)c(O)c1 [EGCG]
- disease activity index (DAI) (ulcerative colitis (UC); [8]): decreased
- spleen index (SI) (ulcerative colitis (UC); [8]): decreased
- HIF-1α protein expression in the colon (ulcerative colitis (UC); mouse, in vivo): decreasing
- STAT3 protein expression in the colon (ulcerative colitis (UC); mouse, in vivo): decreasing
- plasma levels of IL-10 (ulcerative colitis (UC); mouse, in vivo): increasing
- plasma levels of TGF-β1 (ulcerative colitis (UC); mouse, in vivo): increasing
- release of IL-6 (ulcerative colitis (UC); plasma): reduce
- release of IL-17 (ulcerative colitis (UC); plasma): reduce
- TNF-α-induced nuclear factor-κB (NF-κB) activity (macrophage foam cells): inhibition
- TNF-α-induced downregulation of ABCA1 and decrease in cholesterol efflux to apoA1 (macrophage foam cells; pretreatment): attenuated
- NO production ([1]; cotreated with LPS): Inhibition
- activation of nuclear factor-kappaB ([1]; electrophoretic mobility shift assay): blocked
- myeloperoxidase activity (myocardial ischemia): reduced
- myocardial damage (myocardial ischemia): reduced
- plasma IL-6 levels (myocardial ischemia): decreased
- plasma creatine phosphokinase levels (myocardial ischemia): decreased

Compound: CC1=CC(=O)C(C(C)C)=CC1=O [thymoquinone]
- concentration of IL-1α (sepsis; 0.75 mg/kg dose): 310.8 ± 70.93 pg/mL
- IL-10 levels (sepsis; 0.75 mg/kg, controls 5505.2 ± 333.96): 2885.0 ± 553.98 pg/mL
- concentration of IL-1α (sepsis; 1 mg/kg group): 428.3 ± 71.32 pg/mL
- levels of IL-2 (sepsis; P=0.0851): relatively lower levels
- levels of TNF-α (sepsis; P=0.1817): relatively lower levels
- reduction of mortality (sepsis; mice, sepsis): 80-90%
- renal and hepatic biomarker profiles (sepsis; mice, sepsis): improved
- lipopolysaccharide-induced inflammatory reactions [2]: suppressed effectively
- concentration of nitric oxide ([2]; marker of inflammation): reduced significantly

Compound: trans-3,5-dimethoxy-4-hydroxystilbene [pterostilbene]
- oxLDL-induced cell shrinkage, chromatin condensation, nuclear fragmentation, and cell apoptosis ([3]; HUVECs, oxLDL 200 µg/ml): protected against such injuries
- expression of lectin-like oxLDL receptor-1 (LOX-1) ([3]; in vitro and in vivo): inhibited
- number of TUNEL-positive cells in the endothelium of atherosclerotic plaque [4]: strongly decreased

Compound: C[S+]([O-])CCCCN=C=S (stereo not drawn) [sulforaphane, 1-isothiocyanato-4-(methylsulfinyl)-butane]
- expression of NO and cytokines [5]: able to prevent
- anti-inflammatory effect [6]: attenuated
- inducible nitric oxide synthase (iNOS) activity (LPS-induced ARDS; 50 mg/kg): significantly inhibited
- nuclear factor-κB protein expression (LPS-induced ARDS; 50 mg/kg): significantly decreased
- prostaglandin E2 (PGE2) production (LPS-induced ARDS; 50 mg/kg): significantly inhibited
- serum levels of interleukin-6 (IL-6) (LPS-induced ARDS; 50 mg/kg, ELISA): significantly decreased
- serum levels of tumor necrosis factor-α (TNF-α) (LPS-induced ARDS; 50 mg/kg, ELISA): significantly decreased
- lactate dehydrogenase (LDH) activity (LPS-induced ARDS; 50 mg/kg, LPS 5 mg/kg): significantly decreased
- wet-to-dry ratio of the lungs (LPS-induced ARDS; 50 mg/kg, LPS 5 mg/kg): significantly decreased
- Nrf2/antioxidant response element (ARE) pathway (LPS-induced ARDS; pre-treatment): activated
- cyclooxygenase-2 (COX-2) protein expression (LPS-induced ARDS; western blot): significantly inhibited
- matrix metalloproteinase-9 (MMP-9) protein expression (LPS-induced ARDS; western blot): significantly inhibited
- HO-1 expression ([7]; LPS-stimulated): significantly augmented
- LPS-stimulated mRNA expression, protein expression and production of TNF-alpha, IL-1beta, COX-2 and iNOS ([7]; pretreatment): potently inhibited
